According to publication PMC9911596 (Nature Communications, 2023):

Biological target: T1, Vtc1/Vtc3/Vtc4 complex (VTC complex) (Saccharomyces cerevisiae, UniProt P47075+Q02725)
T1 construct: full-length subunits co-expressed in Expi293F; Vtc1 C-terminal HA, Vtc3 N-terminal 3xFlag, Vtc4 C-terminal 2xStrep; detergent-purified; 3:1:1 pentamer; with Vacuolar transporter chaperone complex subunit 1
T1 sequence (P47075 1-721): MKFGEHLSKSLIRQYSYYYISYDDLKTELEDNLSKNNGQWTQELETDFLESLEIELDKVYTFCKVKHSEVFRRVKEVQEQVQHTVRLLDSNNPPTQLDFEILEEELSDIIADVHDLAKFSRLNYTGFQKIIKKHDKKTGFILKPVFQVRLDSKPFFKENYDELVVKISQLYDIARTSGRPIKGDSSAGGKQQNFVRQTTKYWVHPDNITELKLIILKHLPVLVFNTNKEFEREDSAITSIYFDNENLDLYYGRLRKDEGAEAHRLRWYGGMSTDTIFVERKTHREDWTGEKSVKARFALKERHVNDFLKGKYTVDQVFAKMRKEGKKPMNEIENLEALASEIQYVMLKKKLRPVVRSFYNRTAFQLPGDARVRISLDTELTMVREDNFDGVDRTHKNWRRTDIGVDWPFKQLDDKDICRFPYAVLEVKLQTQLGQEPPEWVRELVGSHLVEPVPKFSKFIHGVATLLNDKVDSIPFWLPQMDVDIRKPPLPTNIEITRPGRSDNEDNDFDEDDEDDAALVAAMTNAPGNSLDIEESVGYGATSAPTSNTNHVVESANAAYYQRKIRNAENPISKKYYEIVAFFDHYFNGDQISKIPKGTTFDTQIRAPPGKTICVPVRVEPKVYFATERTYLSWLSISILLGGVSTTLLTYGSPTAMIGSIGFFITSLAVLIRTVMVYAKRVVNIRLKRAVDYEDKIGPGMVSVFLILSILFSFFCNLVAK
T1 sequence (Q02725 1-835): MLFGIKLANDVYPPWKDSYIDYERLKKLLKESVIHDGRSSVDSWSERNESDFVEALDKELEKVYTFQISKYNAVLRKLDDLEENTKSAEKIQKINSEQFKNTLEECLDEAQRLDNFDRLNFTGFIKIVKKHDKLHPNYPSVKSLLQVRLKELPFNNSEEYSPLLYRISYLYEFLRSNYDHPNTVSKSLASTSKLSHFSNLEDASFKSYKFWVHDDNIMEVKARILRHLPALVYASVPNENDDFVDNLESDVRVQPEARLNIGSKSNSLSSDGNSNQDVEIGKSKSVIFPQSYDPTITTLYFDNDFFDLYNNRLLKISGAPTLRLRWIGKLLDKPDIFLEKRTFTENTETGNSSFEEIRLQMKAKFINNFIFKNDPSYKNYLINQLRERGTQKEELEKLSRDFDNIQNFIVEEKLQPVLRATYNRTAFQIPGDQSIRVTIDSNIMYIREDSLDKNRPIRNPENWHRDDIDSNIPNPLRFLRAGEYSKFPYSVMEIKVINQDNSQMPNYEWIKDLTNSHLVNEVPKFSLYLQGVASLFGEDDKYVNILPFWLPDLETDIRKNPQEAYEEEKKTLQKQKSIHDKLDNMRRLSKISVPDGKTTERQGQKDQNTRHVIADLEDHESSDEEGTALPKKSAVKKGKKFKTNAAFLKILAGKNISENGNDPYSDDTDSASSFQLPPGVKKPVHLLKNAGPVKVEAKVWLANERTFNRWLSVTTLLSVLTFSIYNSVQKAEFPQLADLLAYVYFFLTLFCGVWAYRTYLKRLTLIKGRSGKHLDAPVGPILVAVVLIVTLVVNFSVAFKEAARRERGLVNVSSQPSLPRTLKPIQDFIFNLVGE
T1 sequence (P40046 22-129 partner): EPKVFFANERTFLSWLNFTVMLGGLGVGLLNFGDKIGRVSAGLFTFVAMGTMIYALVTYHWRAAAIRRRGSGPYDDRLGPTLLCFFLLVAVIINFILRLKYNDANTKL
Assay: polyP synthesis, TBE-PAGE; smFRET
Assay type: biochemical
Conditions: 1 mM InsP6; activator; deletion of Vtc1 N-terminus

Structure (SMILES): O=P(O)(O)O[C@H]1[C@H](OP(=O)(O)O)[C@@H](OP(=O)(O)O)[C@H](OP(=O)(O)O)[C@@H](OP(=O)(O)O)[C@H]1OP(=O)(O)O [InsP6]
- polyP synthesis, TBE-PAGE; smFRET: mutant VTC complex that can no longer be activated by the InsP6 stimulus
